# From paper PMC7436063, “Bioactive Chemical Composition of Cannabis Extracts and Cannabinoid Receptors” (Molecules, 2020)
# Tests used:
# CB1 = molecular target: T1, CB1 (Homo sapiens, UniProt P21554); test: cAMP assay (HitHunter), inhibition of forskolin-stimulated cAMP in CHO-K1-CB1 cells; assay type: cell-based
# T1 construct: gene CNR1; expressed in CHO-K1-CB1 cell line (DiscoverX), cAMP reporter platform
# From the text: cAMP assay (HitHunter), inhibition of forskolin-stimulated cAMP in CHO-K1-CB1 cells on CB1
# CB2 = molecular target: T2, CB2 (Homo sapiens, UniProt P34972); test: cAMP assay (HitHunter), inhibition of forskolin-stimulated cAMP in CHO-K1-CB2 cells; assay type: cell-based
# T2 construct: gene CNR2; expressed in CHO-K1-CB2 cell line (DiscoverX), cAMP reporter platform
# T2 sequence (P34972 whole entry): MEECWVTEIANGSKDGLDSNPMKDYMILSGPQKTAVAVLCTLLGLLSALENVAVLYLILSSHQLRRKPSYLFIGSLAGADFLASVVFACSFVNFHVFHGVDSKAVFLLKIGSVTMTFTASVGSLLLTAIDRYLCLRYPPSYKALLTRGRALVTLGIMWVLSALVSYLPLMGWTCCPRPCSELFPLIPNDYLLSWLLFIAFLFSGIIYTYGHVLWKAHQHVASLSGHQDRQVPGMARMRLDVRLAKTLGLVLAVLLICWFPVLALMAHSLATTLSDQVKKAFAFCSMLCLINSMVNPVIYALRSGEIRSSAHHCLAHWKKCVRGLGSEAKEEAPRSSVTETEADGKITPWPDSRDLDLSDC
# From the text: cAMP assay (HitHunter), inhibition of forskolin-stimulated cAMP in CHO-K1-CB2 cells on CB2
# [1] = read-out: Receptor Potency (μM) / ^b IC50 (Antagonist) / CB1
# T1 sequence (P21554 whole entry): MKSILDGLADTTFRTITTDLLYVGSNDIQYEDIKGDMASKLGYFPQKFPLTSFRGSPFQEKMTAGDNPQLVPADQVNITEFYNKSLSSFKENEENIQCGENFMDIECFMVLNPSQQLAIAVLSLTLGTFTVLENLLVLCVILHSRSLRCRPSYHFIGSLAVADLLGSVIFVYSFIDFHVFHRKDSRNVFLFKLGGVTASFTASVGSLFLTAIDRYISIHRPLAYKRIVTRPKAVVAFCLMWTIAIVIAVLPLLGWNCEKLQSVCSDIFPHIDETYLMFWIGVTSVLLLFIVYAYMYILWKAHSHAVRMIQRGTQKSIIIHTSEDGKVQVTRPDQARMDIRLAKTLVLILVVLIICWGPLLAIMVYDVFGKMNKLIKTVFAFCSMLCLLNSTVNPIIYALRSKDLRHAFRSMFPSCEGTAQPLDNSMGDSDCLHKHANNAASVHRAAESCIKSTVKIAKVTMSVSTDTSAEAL
smiles,measurement,setting,value
C=C(C)[C@@H]1CCC(C)=C[C@H]1c1c(O)cc(CCCCC)c(C(=O)O)c1O [CBDA],EC50,CB1; read-out: Receptor Potency (μM) / ^a EC50 (Agonist) / CB1,17 ± 3 µM
same,IC50,CB1; [1],> 10 µM
same,EC50,CB2; read-out: Receptor Potency (μM) / ^a EC50 (Agonist) / CB2,17 ± 4 µM
same,IC50,CB2; [1],> 10 µM
